Assay: Example 1: visual appearance of diesel with Cu or brass sheet
Type: physicochemical
Conditions: evaluation of Example 1; diesel oil with 5% FAME; time delay, concentration-dependent, turbulent flow
Procedure: Materials used: • 3,3′-methylenebis(5-methyloxazolidine) • brass 63 (100×20×1 mm), Cat. No.: 16-24 from Riegger Industriehandel, Reinbek, Federal Republic of Germany • E-copper ((100×20×1 mm), Cat. No.: 15-54 from Riegger • diesel fuel to EN 590, with 5% (V/V) fatty acid methyl ester
Procedure: The solutions and the metal sheet were each introduced into a 500 ml wide-neck bottle. Solutions 1A-1C were not stirred; solutions 1D-1G were stirred with a magnetic stirrer. The appearance of the solutions was assessed visually.

compatibility as an additive to diesel oil in contact with copper or nonferrous metal: incompatible
Compound: CC1CN(CN2COC(C)C2)CO1 (stereo not shown) [3,3′-methylenebis(5-methyloxazolidine)]
